Measured values taken from paper PMC7211195 (Investigational New Drugs, 2019).
Like-named read-outs stand apart in the source and are kept apart here.

Experiments:
[1] = Lapatinib pharmacokinetics in rat blood plasma (BP), HPLC-MS/MS, noncompartmental analysis; assay type: in vivo, rats; conditions: for MRT last: read-out: MRT0-t
Description: This study was conducted on rats, which are a promising model to predict P-gp-based drug-drug interactions at the human BBB [15]. The animals were allowed to acclimate for one week before the beginning of the experiments. Adult male Wistar-strain rats (weight 470–525 g) were used in the study. The animals were maintained under standard breeding conditions with a 12/12 h light-dark cycle (lights on at 6.00 a.m., lights off at 6.00 p.m.) at constant room temperature (23 ± 2 °C), relative humidity (55 ± 10%) and ad libitum access to food and water. The experimental protocol for this study was reviewed and approved by the Local Ethics Committee. To obtain consistent data, the study was based on the required minimum number of animals and observation time. […] Three rats were used at each time point (n = 3). In total, the research was conducted on 66 animals (n = 33 in the experimental group and n = 33 in the control group).
Elacridar was freshly dissolved in a vehicle at an initial concentration of 20 mg/mL. […] A volume of 80 μL of blood was collected from each rat by cutting off a piece of its tail. The blood samples were collected into heparinized test tubes at the following time points: […], and they were immediately centrifuged at 2880 g for 10 min at 4 °C. The anaesthetized rats (anaesthetized by intramuscular administration of 50 mg/kg ketamine and 10 mg/kg xylazine) were prepared for cisterna magna puncture. The hair over the puncture was removed and the skin was disinfected with alcohol. The animals were placed in a recumbent position with an elevated rear part of the body. The animals’ heads were slightly flexed and immobilized with the operator’s left hand. The space between the occiput rostrally and the atlas (C1) of the spinal column caudally was gently palpated with the left thumb. A 0.7 × 20 G needle with polyethylene tubing (Terumo Poland, Warsaw, Poland) was gently inserted at an approximate angle of 80–90° through the skin with the operator’s right hand into the midsagittal region. The moment that dura mater perforation was perceptible, a small amount of CSF was found in the needle tubing. To sample additional CSF, a 1 mL insulin syringe (Becton Dickinson, Warsaw, Poland) was used to collect 80–120 μL of CSF by very gentle aspiration. Only clear CSF was collected for further analysis. […] The animals’ brains were immediately dissected, washed in 0.9% NaCl and divided along the longitudinal axis. One of the brain hemispheres was again rinsed three times with 5 mL of 0.9% NaCl, weighed and homogenized with 0.9% NaCl (4 mL per 1 g of BT) in an Ultra-Turrax homogenizer (Witko, Łódź, Poland). The homogenate was then centrifuged at 4500 g for 10 min. All samples of the rat BP, CSF, and BT homogenate supernatant were stored at −80 °C until analysis.
The chromatographic analysis was conducted using a 1260 Infinity system (Agilent Technologies, Santa Clara, USA) equipped with a Kinetex® C18 column (50 × 4.6 mm, 2.6 μm, Phenomenex, Torrance, USA), which was maintained at 35 °C. The mobile phase consisted of 0.1% formic acid (v/v) in water with 5 mM ammonium formate (solvent A) and acetonitrile with 10% phase A (v/v, solvent B). The analyte and internal standard (IS, erlotinib) were eluted using a gradient run of 10 min as follows: 95% A at 0–2 min; 95%–5% A at 2–4 min; 5% A at 4–5 min; 5%–95% A at 5–6 min; 95% A at 6–10 min. The flow rate and injection volume were set at 0.7 mL/min and 10 μL, respectively. The needle was washed for 30 s in a mixture of acetonitrile, methanol, isopropanol, water, and formic acid (50:20:15:15:0.25, v/v/v/v/v).

[2] = Stability of lapatinib in QC samples, BP samples and standard solutions; assay type: physicochemical; conditions: for stability, deviation: low and high QC samples
Source text: Data acquisition and processing were controlled with Analyst 1.5.2 software (Sciex, Framingham, USA).

[3] = Lapatinib pharmacokinetics and uptake in rat cerebrospinal fluid (CSF); assay type: in vivo, rats; conditions: male, Wistar, po, 100 mg/kg, lapatinib p.o. 100 mg/kg alone, read-out: Clapatinib in CSF, single rat
[4] = design: method as in PMID 19056914; conditions: cited from earlier work
[5] = cited from earlier work
[6] = design: method as in PMID 25547867; conditions: cited from earlier work
[7] = blood plasma, lapatinib 100 mg/kg oral + 5 mg/kg elacridar (IE+L)
[8] = male, Wistar, rat, plasma, oral, lapatinib 100 mg/kg + elacridar, read-out: Clapatinib in BP, S
[9] = male, Wistar, rat, plasma, oral, lapatinib 100 mg/kg + elacridar, read-out: Clapatinib in BP, single rat
[10] = male, Wistar, rat, plasma, po, 100 mg/kg, blood plasma, lapatinib 100 mg/kg oral + 5 mg/kg elacridar (IE+L)
[11] = male, Wistar, rat, plasma, po, 100 mg/kg, blood plasma, lapatinib 100 mg/kg oral alone (IIL)
[12] = male, Wistar, rat, plasma, po, 100 mg/kg, lapatinib p.o. 100 mg/kg alone, read-out: Clapatinib in BP, S (medium value)
[13] = male, Wistar, rat, plasma, po, 100 mg/kg, lapatinib p.o. 100 mg/kg alone, read-out: Clapatinib in BP, single rat

CS(=O)(=O)CCNCc1ccc(-c2ccc3ncnc(Nc4ccc(OCc5cccc(F)c5)c(Cl)c4)c3c2)o1 [lapatinib, N-{3-Chloro-4-[(3-fluorobenzyl)oxy]phenyl}-6-[5-({[2-(methylsulfonyl)ethyl]amino}methyl)-2-furyl]-4-quinazolinamine]
plasma AUC0-t higher in IE+L than in IIL ([1]; BP, IE+L vs IIL group): 78.7% | plasma AUC0-∞ higher in IE+L than in IIL ([1]; BP, IE+L vs IIL group): 155.6% | plasma Cmax greater in IE+L than in IIL ([1]; BP, IE+L vs IIL group): 6.3% | t0.5 prolongation when coadministered with elacridar ([1]; BP, IE+L vs IIL group): 5.2 fold | Tmax [1, 7]: 2.50 ± 0.71 h | t0.5 [1, 7]: 28.77 ± 6.00 h | concentration of lapatinib after 24 h ([1]; each matrix sample (BP, CSF, BT), IIL group): undetectable | concentration at 0.25 h [1, 8]: 780 ng/mL | concentration at 0.25 h [1, 9]: 700 ng/mL | concentration at 0.5 h [1, 8]: 1520 ng/mL | concentration at 0.5 h [1, 9]: 1680 ng/mL | concentration at 1 h [1, 8]: 1980 ng/mL | concentration at 1 h [1, 9]: 2050 ng/mL | concentration at 2 h [1, 8]: 3070 ng/mL | concentration at 2 h [1, 9]: 2100 ng/mL | concentration at 3 h [1, 8]: 2460 ng/mL | concentration at 3 h [1, 9]: 2040 ng/mL | concentration at 4 h [1, 8]: 1310 ng/mL | concentration at 4 h [1, 9]: 1580 ng/mL | concentration at 6 h [1, 8]: 1340 ng/mL | concentration at 6 h [1, 9]: 1360 ng/mL | concentration at 8 h [1, 8]: 1780 ng/mL | concentration at 12 h [1, 8]: 2300 ng/mL | concentration at 12 h [1, 9]: 2280 ng/mL | concentration at 24 h [1, 8]: 1230 ng/mL | concentration at 24 h [1, 9]: 1300 ng/mL | Cmax ([1]; male, Wistar, rat, plasma, po, 100 mg/kg): 3260 ± 810 ng/mL | AUC(0-inf) [1, 10]: 95100 ng·h/mL | AUC(0-t) [1, 10]: 43600 ng·h/mL | k el [1, 10]: 5.56e-06 s⁻¹ | MRT last [1, 10]: 11.1 ± 0.5 h | AUC(0-inf) [1, 11]: 37200 ng·h/mL | AUC(0-t) [1, 11]: 24400 ng·h/mL | k el [1, 11]: 3.61e-05 s⁻¹ | MRT last [1, 11]: 5.7 ± 0.43 h | concentration at 0.25 h [1, 12]: 650 ng/mL | concentration at 0.25 h [1, 13]: 530 ng/mL | concentration at 0.5 h [1, 12]: 1330 ng/mL | concentration at 0.5 h [1, 13]: 1210 ng/mL | concentration at 1 h [1, 12]: 2050 ng/mL | concentration at 1 h [1, 13]: 1830 ng/mL | concentration at 2 h [1, 12]: 2210 ng/mL | concentration at 2 h [1, 13]: 1950 ng/mL | concentration at 3 h [1, 12]: 2380 ng/mL | concentration at 4 h [1, 12]: 3260 ng/mL | concentration at 4 h [1, 13]: 3830 ng/mL | concentration at 6 h [1, 12]: 1940 ng/mL | concentration at 6 h [1, 13]: 1560 ng/mL | concentration at 8 h [1, 12]: 1940 ng/mL | concentration at 8 h [1, 13]: 2130 ng/mL | concentration at 12 h [1, 12]: 1500 ng/mL | Tmax ([1]; male, Wistar, rat, plasma, po, 100 mg/kg, read-out: tmax): 4 h | postpreparative stability, change in the concentration ([2]; BP samples and standard solutions, 24 h and 48 h in the autosampler at 4 °C): < 15% | stability, deviation ([2]; three freeze-thaw cycles at −80 °C): < 5% | stability, deviation ([2]; three months of storage at −80 °C): < 15% | concentration at 0.25 h [3]: 4.47 ng/mL | Kp,BT ([4]; WT mice, 24-h intravenous administration): 0.04 | Kp,BT times greater than in WT mice ([4]; mdr1a/b(−/−)/bcrp(−/−) mice): 40 times | binds with plasma proteins [5]: 99% | patients with BM responding to lapatinib therapy [6]: 2.6–6.0%
